From patent US6710168B1, “Glycopeptide antibiotics, combinatorial libraries of glycopeptide antibiotics and methods of producing same” (The Trustees of the University of Princeton, priority 1999, dated 2004)
≈ marks a conversion by molar mass, not a printed value.

Assays:
Type in all cases: cell-based
[1] = test system: gentamicin, streptmycin, vancomycin resistant Enterococcus faecalis (ATCC 51299); experiment: microbe, parasite or virus in culture; details: for MIC: Enterococcus faecalis, ATCC51299, read-out: MIC VREF; for MIC VREF: Enterococcus faecalis ATCC51299, vancomycin resistance
How it was run: (§1)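 Broth microdilution in cation-adjusted Mueller-Hinton broth, 12-step two-fold series from 5 μg/mL to […], mixed 1:1 with 10^6 CFU/mL cell suspension and incubated 24 h at 37 °C. MTT (1 mg/mL solution) is then added for 30 min (S. aureus, MRSA) or 2 h (E. faecalis strains). MIC = lowest concentration inhibiting growth.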

[2] = test system: Enterococcus faecalis CL5244, VanB; experiment: MIC susceptibility test; details: Enterococcus faecalis CL5244, VanB; for MIC: read-out: MIC CL5244
How it was run: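 MTT-based broth microdilution in cation-adjusted Mueller-Hinton broth; two-fold 12-step dilutions […], inoculum 10^6 CFU/mL, 37° C for 24 h.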

[3] = test system: Methicillin resistant Staphylococcus aureus (ATCC 33591); experiment: MIC susceptibility test, microdilution with MTT readout; details: Staphylococcus aureus ATCC3359, Methicillin resistance; for MIC: ATCC 3359 / ATCC 33591 / MRSA, read-out: MIC MRSA
How it was run: as §1

[4] = test system: Bacillus cereus (ATCC 11778); experiment: as above; details: for MIC: Bacillus cereus, ATCC11778, read-out: MIC BC; for MIC BC: Bacillus ceres ATCC11778
How it was run: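 Bacillus cereus ATCC® 11778 susceptibility was measured by broth microdilution in 96-well microplates using Cation Adjusted Mueller-Hinton broth. Samples were diluted two-fold from 5 μg/mL over 12 steps. Each well combined 100 μL of cell suspension (10^6 CFU/mL) with 100 μL of antibiotic solution and was incubated at 37° C. for 24 h. Then 50 μL of MTT (1 mg/mL) was added for 30 min, and MIC (μg/mL) was read as the lowest concentration inhibiting growth.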

[5] = test system: Staphylococcus aureus (ATCC 29213); experiment: as above; details: Staphylococcus aureus ATCC29213; for MIC: read-out: MIC SA
How it was run: as §1

[6] = test system: Enterococcus faecalis (ATCC 29212); experiment: as above; details: Enterococcus faecalis ATCC29212; for MIC: read-out: MIC EF
How it was run: as §1

[7] = test system: Enterococcus faecium CL5137, VanA; experiment: MIC susceptibility test; details: Enterococcus faecium CL5137, VanA; for MIC: read-out: MIC CL5137

SMILES	MIC [1] [µg/mL]	MIC [2] [µg/mL]	MIC [3] [µg/mL]	MIC [4] [µg/mL]	MIC [5] [µg/mL]	MIC [6] [µg/mL]	MIC [7] [µg/mL]	MIC VREF [1] [µg/mL]	MIC CL5244 [2]	MIC MRSA [3] [µg/mL]	MIC BC [4] [µg/mL]	MIC SA [5] [µg/mL]	MIC EF [6] [µg/mL]	MIC CL5137 [7]
CCCCCCCCCCNC1(C)CC(OC2C(Oc3c4cc5cc3Oc3ccc(cc3Cl)[C@@H](O)[C@@H](NC(=O)[C@H](CC(C)C)NC)C(=O)N[C@@H](CC(N)=O)C(=O)N[C@H]5C(=O)NC3C(=O)N[C@H](C(=O)N[C@@H](C(=O)O)c5cc(O)cc(O)c5-c5cc3ccc5O)[C@H](O)c3ccc(c(Cl)c3)O4)OC(CSc3nc4cc(Cl)ccc4s3)C(O)C2O)OC(C)C1O (stereo partly shown) [LXXX, N-Decylvancosamine-glucose-C6-2-thio-5-chlorobenzothiazole Vancomycin]	2.5 (≈ 1.41 µM)	2.4 (≈ 1.35 µM)	5 (≈ 2.82 µM)	5 (≈ 2.82 µM)	> 5	1.3 (≈ 0.733 µM)	50 (≈ 28.2 µM)	–	–	–	–	–	–	–
CCCCCCCCCCNC1(C)CC(OC2C(Oc3c4cc5cc3Oc3ccc(cc3Cl)[C@@H](O)[C@@H](NC(=O)[C@H](CC(C)C)NC)C(=O)N[C@@H](CC(N)=O)C(=O)N[C@H]5C(=O)NC3C(=O)N[C@H](C(=O)N[C@@H](C(=O)O)c5cc(O)cc(O)c5-c5cc3ccc5O)[C@H](O)c3ccc(c(Cl)c3)O4)OC(CSc3nc(-c4ccccc4)c(-c4ccccc4)o3)C(O)C2O)OC(C)C1O (stereo partly shown) [LXXXII, N-Decylvancosamine-glucose-C6-2-thio-4,5-diphenyloxazole Vancomycin]	> 5	13 (≈ 7.12 µM)	> 5	> 5	> 5	> 5	> 50	–	–	–	–	–	–	–
CN[C@@H](CC(C)C)C(=O)N[C@H]1C(=O)N[C@@H](CC(N)=O)C(=O)N[C@H]2C(=O)NC3C(=O)N[C@H](C(=O)N[C@@H](C(=O)O)c4cc(O)cc(O)c4-c4cc3ccc4O)[C@H](O)c3ccc(c(Cl)c3)Oc3cc2cc(c3OC2OC(CSc3nnc(N)s3)C(O)C(O)C2OC2CC(C)(NCc3ccc(-c4ccc(Cl)cc4)cc3)C(O)C(C)O2)Oc2ccc(cc2Cl)[C@H]1O (stereo partly shown) [LXXXIII, N-4-(4-Chlorophenyl)benzylvancosamine-glucose-C6-2-thio-5-amino-1,3,4-thiadiazole Vancomycin]	0.32 (≈ 0.181 µM)	0.2 (≈ 0.113 µM)	0.48 (≈ 0.272 µM)	0.32 (≈ 0.181 µM)	0.48 (≈ 0.272 µM)	0.16 (≈ 0.0906 µM)	3.2 (≈ 1.81 µM)	–	–	–	–	–	–	–
CN[C@@H](CC(C)C)C(=O)N[C@H]1C(=O)N[C@@H](CC(N)=O)C(=O)N[C@H]2C(=O)NC3C(=O)N[C@H](C(=O)N[C@@H](C(=O)O)c4cc(O)cc(O)c4-c4cc3ccc4O)[C@H](O)c3ccc(c(Cl)c3)Oc3cc2cc(c3OC2OC(CSc3nnc(NN)n3N)C(O)C(O)C2OC2CC(C)(NCc3ccc(-c4ccc(Cl)cc4)cc3)C(O)C(C)O2)Oc2ccc(cc2Cl)[C@H]1O (stereo partly shown) [LXXXIV, N-4-(4-Chlorophenyl)benzylvancosamine-glucose-C6-5-thio-4-amino-3-hydrazino-1,2,4-triazole Vancomycin]	0.16 (≈ 0.09 µM)	0.2 (≈ 0.112 µM)	0.48 (≈ 0.27 µM)	0.08 (≈ 0.045 µM)	0.63 (≈ 0.354 µM)	0.12 (≈ 0.0675 µM)	6.3 (≈ 3.54 µM)	–	–	–	–	–	–	–
CN[C@@H](CC(C)C)C(=O)N[C@H]1C(=O)N[C@@H](CC(N)=O)C(=O)N[C@H]2C(=O)NC3C(=O)N[C@H](C(=O)N[C@@H](C(=O)O)c4cc(O)cc(O)c4-c4cc3ccc4O)[C@H](O)c3ccc(c(Cl)c3)Oc3cc2cc(c3OC2OC(CSc3nc(C)cc(O)n3)C(O)C(O)C2OC2CC(C)(NCc3ccc(-c4ccc(Cl)cc4)cc3)C(O)C(C)O2)Oc2ccc(cc2Cl)[C@H]1O (stereo partly shown) [LXXXV, N-4-(4-Chlorophenyl)benzylvancosamine-glucose-C6-2-thio-4-hydroxy-6-methylpyrimidine Vancomycin]	0.32 (≈ 0.18 µM)	0.4 (≈ 0.225 µM)	1.3 (≈ 0.733 µM)	1.3 (≈ 0.733 µM)	1.9 (≈ 1.07 µM)	0.32 (≈ 0.18 µM)	6.3 (≈ 3.55 µM)	–	–	–	–	–	–	–
CN[C@@H](CC(C)C)C(=O)N[C@H]1C(=O)N[C@@H](CC(N)=O)C(=O)N[C@H]2C(=O)NC3C(=O)N[C@H](C(=O)N[C@@H](C(=O)O)c4cc(O)cc(O)c4-c4cc3ccc4O)[C@H](O)c3ccc(c(Cl)c3)Oc3cc2cc(c3OC2OC(CSc3nnc(C)c(O)n3)C(O)C(O)C2OC2CC(C)(NCc3ccc(-c4ccc(Cl)cc4)cc3)C(O)C(C)O2)Oc2ccc(cc2Cl)[C@H]1O (stereo partly shown) [LXXXVI, N-4-(4-Chlorophenyl)benzylvancosamine-glucose-C6-2-thio-6-azathymine Vancomycin]	0.16 (≈ 0.0901 µM)	0.4 (≈ 0.225 µM)	1 (≈ 0.563 µM)	0.32 (≈ 0.18 µM)	1 (≈ 0.563 µM)	0.12 (≈ 0.0676 µM)	3.2 (≈ 1.8 µM)	–	–	–	–	–	–	–
CN[C@@H](CC(C)C)C(=O)N[C@H]1C(=O)N[C@@H](CC(N)=O)C(=O)N[C@H]2C(=O)NC3C(=O)N[C@H](C(=O)N[C@@H](C(=O)O)c4cc(O)cc(O)c4-c4cc3ccc4O)[C@H](O)c3ccc(c(Cl)c3)Oc3cc2cc(c3OC2OC(CSc3nc(-c4ccccc4)c(-c4ccccc4)o3)C(O)C(O)C2OC2CC(C)(NCc3ccc(-c4ccc(Cl)cc4)cc3)C(O)C(C)O2)Oc2ccc(cc2Cl)[C@H]1O (stereo partly shown) [LXXXVII, N-4-(4-Chlorophenyl)benzylvancosamine-glucose-C6-2-thio-4,5-diphenyloxazole Vancomycin]	5 (≈ 2.65 µM)	10 (≈ 5.3 µM)	> 5	> 5	> 5	5 (≈ 2.65 µM)	50 (≈ 26.5 µM)	–	–	–	–	–	–	–
CN[C@@H](CC(C)C)C(=O)N[C@H]1C(=O)N[C@@H](CC(N)=O)C(=O)N[C@H]2C(=O)NC3C(=O)N[C@H](C(=O)N[C@@H](C(=O)O)c4cc(O)cc(O)c4-c4cc3ccc4O)[C@H](O)c3ccc(c(Cl)c3)Oc3cc2cc(c3OC2OC(CSc3nccc(C(F)(F)F)n3)C(O)C(O)C2OC2CC(C)(N)C(O)C(C)O2)Oc2ccc(cc2Cl)[C@H]1O (stereo partly shown) [LX]	2.5 (≈ 1.55 µM)	> 50	5 (≈ 3.1 µM)	5 (≈ 3.1 µM)	5 (≈ 3.1 µM)	2.5 (≈ 1.55 µM)	> 50	–	–	–	–	–	–	–
CNC(CC(C)C)C(=O)NC1C(=O)NC(CC(N)=O)C(=O)NC2C(=O)NC3C(=O)NC(C(=O)NC(C(=O)O)c4cc(O)cc(O)c4-c4cc3ccc4O)C(O)c3ccc(c(Cl)c3)Oc3cc2cc(c3OC2OC(CO)C(O)C(O)C2OC2CC(C)(NCc3ccc(-c4ccc(Cl)cc4)cc3)C(O)C(C)O2)Oc2ccc(cc2Cl)C1O (stereo not shown) [N-4-(4-chlorophenyl)benzyl vancomycin, reference compound]	–	–	–	–	–	–	–	0.08 (≈ 0.0485 µM)	0.4 µg/mL (≈ 0.242 µM)	0.08 (≈ 0.0485 µM)	0.08 (≈ 0.0485 µM)	0.16 (≈ 0.097 µM)	0.08 (≈ 0.0485 µM)	13 µg/mL (≈ 7.88 µM)
CCCCCCCCCCNC1(C)CC(OC2C(Oc3c4cc5cc3Oc3ccc(cc3Cl)C(O)C3NC(=O)C(NC(=O)C5NC(=O)C(CC(N)=O)NC(=O)C(NC(=O)C(CC(C)C)NC)C(O)c5ccc(c(Cl)c5)O4)c4ccc(O)c(c4)-c4c(O)cc(O)cc4C(C(=O)O)NC3=O)OC(CO)C(O)C2O)OC(C)C1O (stereo not shown) [N-decyl vancosamine vancomycin, reference compound]	–	–	–	–	–	–	–	0.32 (≈ 0.201 µM)	3.2 µg/mL (≈ 2.01 µM)	0.48 (≈ 0.302 µM)	0.32 (≈ 0.201 µM)	0.63 (≈ 0.396 µM)	0.16 (≈ 0.101 µM)	25 µg/mL (≈ 15.7 µM)
CCCCCCCCCCNC1(C)CC(OC2C(Oc3c4cc5cc3Oc3ccc(cc3Cl)C(O)C3NC(=O)C(NC(=O)C5NC(=O)C(CC(N)=O)NC(=O)C(NC(=O)C(CC(C)C)NC)C(O)c5ccc(c(Cl)c5)O4)c4ccc(O)c(c4)-c4c(O)cc(O)cc4C(C(=O)O)NC3=O)OC(CI)C(O)C2O)OC(C)C1O (stereo not shown) [Vancosamine-N-decyl-glucose-C6-iodo-vancomycin]	–	–	–	–	–	–	–	0.12 (≈ 0.0706 µM)	0.4< μg/mL	0.32 (≈ 0.188 µM)	1.0 (≈ 0.588 µM)	1.3 (≈ 0.765 µM)	0.08 (≈ 0.0471 µM)	6.3 µg/mL (≈ 3.71 µM)
CN[C@@H](CC(C)C)C(=O)N[C@H]1C(=O)N[C@@H](CC(N)=O)C(=O)N[C@H]2C(=O)NC3C(=O)N[C@H](C(=O)N[C@@H](C(=O)O)c4cc(O)cc(O)c4-c4cc3ccc4O)[C@H](O)c3ccc(c(Cl)c3)Oc3cc2cc(c3OC2OC(CNC(=O)C(F)(F)F)C(O)C(O)C2OC2CC(C)(N)C(O)C(C)O2)Oc2ccc(cc2Cl)[C@H]1O (stereo partly shown) [XL, Glucose-C6-trifluoroacetamide Vancomycin]	5 (≈ 3.24 µM)	25 (≈ 16.2 µM)	1 (≈ 0.648 µM)	1.3 (≈ 0.842 µM)	0.48 (≈ 0.311 µM)	1.3 (≈ 0.842 µM)	> 50	–	–	–	–	–	–	–
CNC(CC(C)C)C(=O)NC1C(=O)NC(CC(N)=O)C(=O)NC2C(=O)NC3C(=O)NC(C(=O)NC(C(=O)O)c4cc(O)cc(O)c4-c4cc3ccc4O)C(O)c3ccc(c(Cl)c3)Oc3cc2cc(c3OC2OC(COS(=O)(=O)c3c(C)cc(C)cc3C)C(O)C(O)C2OC2CC(C)(N)C(O)C(C)O2)Oc2ccc(cc2Cl)C1O (stereo not shown) [XLI, Glucose-C6-mesitylenesulfonyl Vancomycin]	–	–	–	–	–	–	–	1.3 (≈ 0.797 µM)	6.3 µg/mL (≈ 3.86 µM)	1.3 (≈ 0.797 µM)	1.3 (≈ 0.797 µM)	0.63 (≈ 0.386 µM)	1.3 (≈ 0.797 µM)	50< μg/mL
